Where two headings read alike, the source gives them in different places.
Tests used:
[1] = In vitro drug release from CS-OA NE (dialysis tubing); format: physicochemical; details: PBS pH 6.2, 32 °C
Protocol: The membrane was immersed in 50 mL of PBS (pH 6.2) at 32 ± 2 °C. The release medium was kept under constant magnetic stirring. Aliquots (1 mL) were withdrawn at predetermined intervals ranging from 15 min to 4 h and replaced with an equal volume of fresh PBS. The Fer-Me and eugenol released were quantified using the HPLC method.

RPMI 2650 cells = tested on: RPMI 2650 cells
Protocol: RPMI 2650 cells were used to evaluate in vitro the possible CS-OA NE cytotoxicity as well as Fer-Me and eugenol cell uptake.
RPMI 2650 cells were cultured on 75 cm^2 polystyrene cell culture flasks in Advanced Minimum Essential Medium (A-MEM), which was supplemented with 10% fetal bovine serum (FBS), 2 mM L-glutamine, 100 IU/mL penicillin, and 100 μg/mL streptomycin. The cells were maintained in a humidified atmosphere containing 5% CO2 at 37 °C. Cells were split twice using trypsin-EDTA at 37 °C before being seeded and allowed to grow to approximately 90% confluence for 3-(4,5-dimethylthiazol-2-yl)-2,5-diphenyltetrazolium (MTT) assays and uptake studies. Cell counting was performed using Scepter™ 2.0 handheld automated cell counter (Merck Millipore, Milan, Italy).
RPMI 2650 cells were seeded in a 12-well plate at a density of 8 × 10^4 cells/well containing 2 mL of culture A-MEM. […] The corresponding solution of pure compounds (approximated to 250 µM and 600 µM concentrations of Fer-Me and eugenol, respectively), and raw Fer-Me (corresponding to a 250 µM solution) added directly to the wells as powder, were used as comparison. In particular, 2 mL of diluted CS-OA NE or the corresponding solution of pure compounds was added to the test wells, and the plate was incubated for pre-determined interval times (10, 30, and 60 min) in a humidified 5% CO2 atmosphere at 37 °C. As for raw Fer-Me incubation, 0.1 mg was accurately weighed (analytical balance Sartorius CP 225D), added to each well containing 2 mL of complete A-MEM, and incubated at 37 °C in an orbital shaker for the same pre-determined interval times above indicated. All media were removed at the end of the incubation. […] After thawing, the lysate was centrifuged twice (16,000× g for 10 min) and the supernatant was immediately injected into the HPLC apparatus (20 μL) to quantify Fer-Me and eugenol (see below). The final number of cells was evaluated on untreated wells after their trypsinization and counted using the Scepter^TM 2.0 automated cell counter (Merck Millipore, Milan, Italy). Each reported value represents the mean of three independent incubation experiments expressed as nanomoles of compounds for 10^6 cells. The uptake efficiencies were calculated as the compound amount quantified in cell lysate 10 min after the onset of the incubation compared to the initial compound amount incubated in cell media (%). […]
The quantification of eugenol and Fer-Me was performed by using a modular HPLC system composed of a pump (model LC-40D), DAD detector (model SPD-M40, Shimadzu, Kyoto, Japan), as well as an injection valve with a 20 μL sample loop (model 7725; Rheodyne, IDEX, Torrance, CA, USA). […]

[2] = Encapsulation efficiency (ultrafiltration method, HPLC); format: physicochemical; details: CS-OA NE, ultrafiltration 50K MWCO
Protocol: EE% was calculated by Equation (2):(2) EE%= total drug amount in CS-OA NE - drug amount in external phase/total drug amount in CS-OA NE × 100

COC(=O)/C=C/c1ccc(O)c(OC)c1 [Fer-Me, methyl ferulate]
in vitro release from CS-OA NE ([1]; 30 min): 24.9% | in vitro release from CS-OA NE ([1]; 240 min): 96.9% | uptake efficiency at 10 min (RPMI 2650 cells): 0.80 ± 0.12% | EE% (encapsulation efficiency) [2]: 90.2%

C=CCc1ccc(O)c(OC)c1 [eugenol]
in vitro release from CS-OA NE ([1]; 30 min): 25.2% | in vitro release from CS-OA NE ([1]; 240 min): 97.5% | intracellular amount (RPMI 2650 cells; human, 10 min, 600 µM): 60.80 ± 5.09 nmol/10^6 cells | uptake efficiency at 10 min (RPMI 2650 cells; human, 10 min, 600 µM): 0.77 ± 0.10% | intracellular amount (RPMI 2650 cells; human, 60 min, 600 µM): 57.41 ± 2.80 nmol/10^6 cells | EE% (encapsulation efficiency) [2]: 87.9%
